Experimental data from US5846545A, “Targeted delivery of cyclopropylbenzindole-containing cytotoxic drugs” (Immunogen, Inc., priority 1995, dated 1998).
pIC50: −log10 of the molar value.

Columns and labels:
[1] = single i.v. dose of 12.5 μg/kg; cited from earlier work
[2] = tested on: human small cell lung cancer cell line SW2; test: In vitro cytotoxicity to SW2 cells, 24 h exposure, growth back-extrapolation assay; type: cell-based; settings: 24 h exposure to the drug, read-out: IC50, free drug, SW2 cells
Experimental: Disulfide-containing and mercapto-containing analogues and derivatives of CC-1065 of the invention can be evaluated for their ability to suppress proliferation of various unwanted cell lines in vitro. For example, cell lines such as the human epidermoid carcinoma line KB, the human breast tumor line SKBR3, and the Burkitt's lymphoma line Namalwa can easily be used for the assessment of cytotoxicity of these compounds. Cells to be evaluated can be exposed to the compounds for 24 hours and the surviving fractions of cells measured in direct assays by known methods. IC50 values can then be calculated from the results of the assays.
Cytotoxicity of the analogues and derivatives of CC-1065 and their conjugates with cell binding agents to non-adherent cell lines such as Namalwa and SW2 can be measured by back-extrapolation of cell proliferation curves as described in Goldmacher et al, 135 J. Immunol. […] Cytotoxicity of these compounds to adherent cell lines such as A-375 and SCaBER can be determined by clonogenic assays as described in Goldmacher et al, 102 J. Cell Biol. 1312-1319 (1986). […]
In vitro cytotoxicity of N901-SS-Drug 7. The in vitro cytotoxicity of a disulfide-linked conjugate of the mono-indolyl CPI derivative 7 with the antibody N901, containing on the average 3.3 drug molecules per antibody molecule, was measured on antigen positive SW2 cells and antigen negative Namalwa cells. […]

[3] = in vitro; cited from earlier work
[4] = tested on: P388 leukemia; settings: cited from earlier work

SMILES	delayed hepatotoxicity leading to death, time of death [1]	pIC50 [2]	fold more cytotoxic than methotrexate, daunorubicin and vincristine [3]	treated mice surviving beyond 30 days ([4]; 0.05 mg/kg i.p. on days 1, 5 and 9)	increase in life span over untreated controls ([4]; optimal dose 0.05 mg/kg i.p. on days 1, 5 and 9)
COc1c(O)c2c(c3cc(C(=O)N4CCc5c4c(O)c(OC)c4[nH]c(C(=O)N6CC7CC78C6=CC(=O)c6[nH]cc(C)c68)cc54)[nH]c13)CCN2C(N)=O (centres unmarked) [CC-1065]	50 days	9.70	100 to 1000 fold	–	–
Cc1c[nH]c2c1[C@@]13C[C@@H]1CN(C(=O)c1cc4cc(NC(=O)c5cc6ccccc6o5)ccc4[nH]1)C3=CC2=O [U-73975]	–	–	–	1 out of 6	170%
